Where two headings read alike, the source gives them in different places.

In one experiment the target is recombinant HuBraf V600E (Homo sapiens, UniProt P15056, V600E). As to the kind of experiment: B-raf Homogenous Time Resolved Fluorescent (HTRF) kinase assay. The format is biochemical. The following applies: substrate MEK1, 10 uM ATP; threshold lists; read-out: IC50 for the inhibition of B-raf as measured by the HTRF assay. The procedure: A Homogeneous Time Resolved Fluorescence (HTRF) kinase assay was established to assay the ability of compounds to inhibit human mutant Braf kinase activity on the substrate MEK1. […] The final concentration of the kinase reaction buffer is 50 mM Tris-HCL pH 7.5, 10 mM MgCl2, 0.5% glucose, 0.5 mM DTT, 0.01% BSA.
Sequence of recombinant HuBraf V600E (P15056 whole entry V600E): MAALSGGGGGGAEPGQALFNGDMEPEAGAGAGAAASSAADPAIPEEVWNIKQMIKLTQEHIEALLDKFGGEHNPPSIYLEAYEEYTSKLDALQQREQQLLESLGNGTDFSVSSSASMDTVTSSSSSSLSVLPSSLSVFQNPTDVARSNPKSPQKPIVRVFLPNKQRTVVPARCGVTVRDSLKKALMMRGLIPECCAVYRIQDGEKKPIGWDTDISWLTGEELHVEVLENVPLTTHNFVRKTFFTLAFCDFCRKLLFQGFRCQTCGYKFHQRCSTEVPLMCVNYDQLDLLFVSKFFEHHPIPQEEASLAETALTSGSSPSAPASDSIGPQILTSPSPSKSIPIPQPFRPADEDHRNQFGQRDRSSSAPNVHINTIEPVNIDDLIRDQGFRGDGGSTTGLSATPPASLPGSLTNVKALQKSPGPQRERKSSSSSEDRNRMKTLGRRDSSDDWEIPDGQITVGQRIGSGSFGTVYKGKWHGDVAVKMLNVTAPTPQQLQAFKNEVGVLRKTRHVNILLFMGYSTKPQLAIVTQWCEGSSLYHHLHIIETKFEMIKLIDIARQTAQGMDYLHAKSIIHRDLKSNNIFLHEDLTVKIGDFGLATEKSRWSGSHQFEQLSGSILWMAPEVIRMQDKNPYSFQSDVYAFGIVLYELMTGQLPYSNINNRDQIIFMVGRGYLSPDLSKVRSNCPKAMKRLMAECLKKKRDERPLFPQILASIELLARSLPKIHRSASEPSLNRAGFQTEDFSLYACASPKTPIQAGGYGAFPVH
The detection reaction proceeds for one hour and is read on a RubyStar (BMG Labtech) counter. IC50s for the test compounds are generated using Excel-XLfit software.
On the technique in general: In TR-FRET formats the signal depends on donor and acceptor labels being close together.

The subject of experiment [1] is A375 cells, a human melanoma cell line having the V600E mutant Braf. As to the kind of experiment: B-Raf cell-based assay (ratio of phospho-ERK1/2 to total ERK1/2). The conditions noted are these: A-375, 1 h, P-ERK/total ERK, 60 minute incubation, read-out: IC50 for the inhibition of B-raf as measured by the cell-based assay. The procedure:
A cell-based assay was optimized to assay the ability of compounds to inhibit Braf activity in a whole cell context. […] The cell-based assay quantifies the ratio of phospho-ERK1/2 to total ERK1/2 and can thereby assay the cellular inhibition of Braf kinase activity.
A375 cells are plated into 96 well plates and grown to confluence. The cells are then changed into starve media (DMEM/0.1% BSA) for 60 minutes. Compounds in DMSO dose curves are then diluted in starve media and added to cells. […] After a 60 minute incubation the cells are fixed for 20 minutes at room temperature in 4% formaldehyde with 0.1%Triton X-100, protease and phosphatase inhibitors in PBS. The cells are washed four times in PBS then blocked for 60 minutes using a one to one mix of Odyssey blocking buffer (Li-Cor Biosciences, Inc) and PBS. Primary antibodies (rabbit anti-phospho p42/p44 MAPK (P-ERK1/2) from Cell Signaling Technology and mouse anti-ERK2 from Santa Cruz Biotechnology) are diluted in blocking buffer, added to the cells and incubated overnight at 4° C. The cells are then washed four times in PBS/0.1% Tween-20. Secondary antibodies (anti-mouse IRDye 800CW from Rockland, Inc and anti-rabbit AlexaFlour680 from Molecular Probes) are diluted in blocking buffer/0.5% Tween and incubated on cells for 60 minutes. After 4 washes in PBS/0.1% Tween-20 the microplate is scanned on an Odyssey Infrared Imager (Li-Cor Bioscience) which can read the signal given by the two secondary antibodies on their respective channels. The ratio of P-ERK/total ERK is determined and IC50s generated using Excel-XLfit software.

As for `CNc1ncc2cc(-c3c(C)ccc4c(Nc5ccc(OC)c(C(F)(F)F)c5)nn(C)c34)ccc2n1` [Example 64, 6-(1,6-dimethyl-3-((4-(methyloxy)-3-(trifluoromethyl)phenyl)amino)-1H-indazol-7-yl)-N-methyl-2-quinazolinamine], the IC50 (commonly the concentration that inhibits the measured activity by half) at recombinant HuBraf V600E is no more than 250 nM; in experiment [1] (threshold list), no more than 500 nM.
On the same counts, the results for `CNc1ncc2cc(-c3c(C)ccc4c(Nc5cccc(OC(F)(F)F)c5)nn(C)c34)ccc2n1` [Example 65, 6-(1,6-dimethyl-3-((3-((trifluoromethyl)oxy)phenyl)amino)-1H-indazol-7-yl)-N-methyl-2-quinazolinamine] are no more than 250 nM and no more than 500 nM.
On the same counts, the results for `CNc1cc(-c2cccnc2Nc2c(C)ccc3c(Nc4cccc(OC(F)(F)F)c4)nccc23)ncn1` [Example 68, 6-methyl-N^5-(3-(6-(methylamino)-4-pyrimidinyl)-2-pyridinyl)-N^1-(3-((trifluoromethyl)oxy)phenyl)-1,5-isoquinolinediamine] are no more than 250 nM and no more than 500 nM.
`CNc1cc(-c2cccnc2Nc2c(C)ccc3c(Nc4ccc(OC)c(C(F)(F)F)c4)nccc23)ncn1` [Example 70, N^1-(4-methoxy-3-(trifluoromethyl)phenyl)-6-methyl-N^5-(3-(6-(methylamino)pyrimidin-4-yl)pyridin-2-yl)isoquinoline-1,5-diamine]: the IC50 (at recombinant HuBraf V600E; in experiment [1] (threshold list)) was no more than 500 nM throughout.
In the case of `CNc1cc(-c2cccnc2Nc2c(C)ccc3c(Nc4ccc5c(c4)NCCC5(C)C)nccc23)ncn1` [Example 72, N^1-(4,4-dimethyl-1,2,3,4-tetrahydro-7-quinolinyl)-6-methyl-N^5-(3-(6-(methylamino)-4-pyrimidinyl)-2-pyridinyl)-1,5-isoquinolinediamine], the results for the 50% inhibitory concentration (IC50) (at recombinant HuBraf V600E; in experiment [1] (threshold list)) were no more than 1000 nM and no more than 500 nM, respectively.
On to `CNc1ncc2cc(-c3c(C)ccc4c(Nc5cccc(OC(C)C)c5)n[nH]c34)ccc2n1` [Example 78, N-methyl-6-(6-methyl-3-((3-((1-methylethyl)oxy)phenyl)amino)-1H-indazol-7-yl)-2-quinazolinamine], for which the results for the IC50 (at recombinant HuBraf V600E; in experiment [1] (threshold list)) were no more than 250 nM and no more than 500 nM, respectively.
On the same counts, the results for `CNc1ncc2cc(-c3c(C)ccc4c(Nc5ccc6c(c5)NCC6(C)C)nccc34)ccc2n1` [Example 79, 6-(1-((3,3-dimethyl-2,3-dihydro-1H-indol-6-yl)amino)-6-methyl-5-isoquinolinyl)-N-methyl-2-quinazolinamine] are no more than 250 nM and no more than 500 nM.
On the same counts, the results for `Cc1ccc2c(Nc3ccc4c(c3)NCC4(C)C)nccc2c1Nc1ncccc1-c1ccncn1` [Example 80, N^1-(3,3-dimethyl-2,3-dihydro-1H-indol-6-yl)-6-methyl-N^5-(3-(4-pyrimidinyl)-2-pyridinyl)-1,5-isoquinolinediamine] are no more than 250 nM and no more than 500 nM.
In the same order, the values of `CNc1ncc2cc(-c3c(C)ccc4c(Nc5ccc6c(c5)NCC6(C)C)ncnc34)ccc2n1` [Example 81, N^4′-(3,3-dimethyl-2,3-dihydro-1H-indol-6-yl)-N^2,7′-dimethyl-6,8′-biquinazoline-2,4′-diamine] are no more than 250 nM and no more than 500 nM.
On to `CNc1ncc2cc(-c3c(C)ccc4c(Nc5ccc(C)c(F)c5)nn(C)c34)ccc2n1` [Example 198], for which the IC50 at recombinant HuBraf V600E is no more than 250 nM; in experiment [1] (threshold list), no more than 500 nM; in experiment [1] (threshold lists), no more than 1000 nM.
In the same order, the values of `CNc1ncc2cc(-c3c(C)ccc4c(Nc5ccc(-n6ccnc6)cc5)nn(C)c34)ccc2n1` [Example 204] are no more than 250 nM, no more than 500 nM and no more than 1000 nM.
Regarding `CNc1cc(-c2cccnc2Nc2c(C)ccc3c(Nc4cccc(C(F)(F)F)c4)ncnc23)ncn1` [Example 337, 7-methyl-N8-(3-(6-(methylamino)pyrimidin-4-yl)pyridin-2-yl)-N4-(3-(trifluoromethyl)phenyl)quinazoline-4,8-diamine], the 50% inhibitory concentration (IC50) on recombinant HuBraf V600E was no more than 250 nM; in experiment [1] (threshold lists) it was no more than 5000 nM.
Regarding `CNc1cc(-c2cccnc2Nc2c(C)ccc3c(Nc4cccc(OC(F)(F)F)c4)ncnc23)ncn1` [Example 343], the IC50 at recombinant HuBraf V600E is no more than 250 nM; in experiment [1] (threshold list) it was no more than 500 nM.
For the compound `Cc1ccc(C(F)(F)F)cc1Nc1nccc2c(Nc3ncccc3-c3ncnc4[nH]ccc34)c(C)ccc12` [Example 346], the IC50 is no more than 500 nM on recombinant HuBraf V600E and no more than 5000 nM in experiment [1] (threshold lists).
In the same order, the values of `CNc1cc(-c2cccnc2Nc2c(C)ccc3c(Nc4ccc(Cl)c(C)c4)nccc23)ncn1` [Example 352] are no more than 250 nM and no more than 5000 nM.
In the case of `CNc1ncc2cc(-c3c(C)sc4c(Nc5ccc(OC)c(C(F)(F)F)c5)nccc34)ccc2n1` [Example 392, 6-(7-(4-methoxy-3-(trifluoromethyl)phenylamino)-2-methylthieno[2,3-c]pyridin-3-yl)-N-methylquinazolin-2-amine], the IC50 on recombinant HuBraf V600E was no more than 250 nM; in experiment [1] (threshold list), no more than 500 nM.
In the case of `CNc1ncc2cc(-c3c(C)sc4c(Nc5cccc(C(F)(F)F)c5)nccc34)ccc2n1` [Example 393, N-methyl-6-(2-methyl-7-(3-(trifluoromethyl)phenylamino)thieno[2,3-c]pyridin-3-yl)quinazolin-2-amine], the IC50 at recombinant HuBraf V600E is no more than 250 nM; in experiment [1] (threshold lists), no more than 5000 nM.
With `CNc1ncc2cc(-c3c(C)ccc4c(Oc5cccc(C(F)(F)F)c5)nccc34)ccc2n1` [Example 395, N-methyl-6-(6-methyl-1-(3-(trifluoromethyl)phenoxy)isoquinolin-5-yl)quinazolin-2-amine], the IC50 at recombinant HuBraf V600E is no more than 250 nM; in experiment [1] (threshold list), no more than 500 nM.
In the same order, the values of `CNc1ncc2cc(-c3c(C)ccc4c(Nc5cccc(C(F)(F)F)c5)nsc34)ccc2n1` [Example 398, N-methyl-6-(6-methyl-3-(3-(trifluoromethyl)phenylamino)benzo[d]isothiazol-7-yl)quinazolin-2-amine] are no more than 250 nM and no more than 500 nM.
In the same order, the values of `CNc1ncc2cc(-c3c(C)ccc4c(Nc5ccc(OC)c(C(F)(F)F)c5)nsc34)ccc2n1` [Example 399, 6-(3-(4-methoxy-3-(trifluoromethyl)phenylamino)-6-methylbenzo[d]isothiazol-7-yl)-N-methylquinazolin-2-amine] are no more than 250 nM and no more than 500 nM.
In the same order, the values of `CNc1ncc2cc(-c3c(C)cnc4c(Nc5ccc(OC)c(C(F)(F)F)c5)nccc34)ccc2n1` [Example 410] are no more than 1000 nM and no more than 500 nM.

Values taken from patent US8440674B2, “Substituted pyrimidine compounds as RAF inhibitors and methods of use” (Amgen Inc., priority 2005, dated 2013).
